Assay results: patent publication US9630965B2, “Fused amino pyridine as HSP90 inhibitors” (Curis, Inc., priority 2007, dated 2017)

Target: T1, HSP90 (Homo sapiens (Human), UniProt P07900)
Experiment: Hsp90 chaperone assay (refolding of heat-denatured luciferase)
Assay type: biochemical
Details: not given
Procedure: (a) An In Vitro Assay which Determines the Ability of a Test Compound to Inhibit Hsp90 Chaperone Activity.
The Hsp90 chaperone assay was performed to measure the ability of HSP90 protein to refold the heat-denatured luciferase protein. HSP90 was first incubated with different concentrations of test compounds in denaturation buffer (25 mM Tris, pH7.5, 8 mM MgSO4, 0.01% bovine gamma globulin and 10% glycerol) at room temperature for 30 min. Luciferase protein was added to denaturation mix and incubated at 50° C. for 8 min. The final concentration of HSP90 and luciferase in denaturation mixture were 0.375 μM and 0.125 μM respectively. A 5 μl sample of the denatured mix was diluted into 25 μl of renaturation buffer (25 mM Tris, pH7.5, 8 mM MgSO4, 0.01% bovine gamma globulin and 10% glycerol, 0.5 mM ATP, 2 mM DTT, 5 mM KCl, 0.3 μM HSP70 and 0.15 μM HSP40). The renaturation reaction was incubated at room temperature for 150 min, followed by dilution of 10 μl of the renatured sample into 90 μl of luciferin reagent (Luclite, PerkinElmer Life Science). The mixture was incubated at dark for 5 min before reading the luminescence signal on a TopCount plate reader (PerkinElmer Life Science).

| IC50 [nM] | Compound |
| --- | --- |
| 100 to 1000 | C#CCCCn1c(Sc2cc3c(cc2Cl)OCO3)nc2c(N)nccc21 [Compound 2, 2-(6-chlorobenzo[d][1,3]dioxol-5-ylthio)-1-(pent-4-ynyl)-1H-imidazo[4,5-c]pyridin-4-amine] |
| 100 to 1000 | C#CCCCn1c(Sc2cc3c(cc2I)OCO3)nc2c(N)nccc21 [Compound 3, 2-(6-iodobenzo[d][1,3]dioxol-5-ylthio)-1-(pent-4-ynyl)-1H-imidazo[4,5-c]pyridin-4-amine] |
| ≥ 10000 | C#CCCCn1c(Sc2cccc(OC)c2)nc2c(N)nccc21 [Compound 11, 2-(3-methoxyphenylthio)-1-(pent-4-ynyl)-1H-imidazo[4,5-c]pyridin-4-amine] |
| 1000 to 10000 | C#CCCCn1c(Sc2cc(OC)ccc2I)nc2c(N)nccc21 [Compound 12, 2-(2-iodo-5-methoxyphenylthio)-1-(pent-4-ynyl)-1H-imidazo[4,5-c]pyridin-4-amine] |

Target: T1, HSP90
Experiment: HSP90 competition binding (fluorescence polarization) assay with FITC labeled GM
Details: 24 hours of incubation at 4° C.
Text: (b) HSP90 Competition Binding (Fluorescence Polarization) Assay.
A fluorescein isothiocyanate (FITC) labeled GM was purchase from InvivoGen (ant-fgl-1). The interaction between HSP90 and labeled GM forms the basis for the fluorescence polarization assay. A free and fast-tumbling FITC labeled GM emits random light with respect to the plane of polarization plane of excited light, resulting in a lower polarization degree (mP) value. When GM is bound to HSP90, the complex tumble slower and the emitted light is polarized, resulting in a higher mP value. […] The assay buffer contained 20 mM HEPES (pH 7.3), 50 mM KCl, 1 mM DTT, 50 mM MgCl2, 20 mM Na2MoO4, 0.01% NP40 with 0.1 mg/ml bovine gamma-globulin.

| IC50 [nM] | Compound |
| --- | --- |
| 100 to 1000 | C#CCCCn1c(Sc2cc3c(cc2Cl)OCO3)nc2c(N)nccc21 [Compound 2, 2-(6-chlorobenzo[d][1,3]dioxol-5-ylthio)-1-(pent-4-ynyl)-1H-imidazo[4,5-c]pyridin-4-amine] |
| < 100 | C#CCCCn1c(Sc2cc3c(cc2I)OCO3)nc2c(N)nccc21 [Compound 3, 2-(6-iodobenzo[d][1,3]dioxol-5-ylthio)-1-(pent-4-ynyl)-1H-imidazo[4,5-c]pyridin-4-amine] |
| 100 to 1000 | CCCCCn1c(Sc2cc3c(cc2I)OCO3)nc2c(N)nccc21 [Compound 4, 2-(6-iodobenzo[d][1,3]dioxol-5-ylthio)-1-pentyl-1H-imidazo[4,5-c]pyridin-4-amine] |
| 100 to 1000 | C#CCCCn1c(Sc2cc3c(cc2I)OCCO3)nc2c(N)nccc21 [Compound 7, 2-(7-iodo-2,3-dihydrobenzo[b][1,4]dioxin-6-ylthio)-1-(pent-4-ynyl)-1H-imidazo[4,5-c]pyridin-4-amine] |
| > 10000 | C#CCCCn1c(Sc2ccc3c(c2)CCO3)nc2c(N)nccc21 [Compound 9, 2-(2,3-dihydrobenzofuran-5-ylthio)-1-(pent-4-ynyl)-1H-imidazo[4,5-c]pyridin-4-amine] |
| > 10000 | C#CCCCn1c(Sc2cccc(OC)c2)nc2c(N)nccc21 [Compound 11, 2-(3-methoxyphenylthio)-1-(pent-4-ynyl)-1H-imidazo[4,5-c]pyridin-4-amine] |
| 100 to 1000 | C#CCCCn1c(Sc2cc(OC)ccc2I)nc2c(N)nccc21 [Compound 12, 2-(2-iodo-5-methoxyphenylthio)-1-(pent-4-ynyl)-1H-imidazo[4,5-c]pyridin-4-amine] |
| > 10000 | C#CCCCn1c(Sc2cc(O)c(O)cc2I)nc2c(N)nccc21 [Compound 16, 4-(4-amino-1-(pent-4-ynyl)-1H-imidazo[4,5-c]pyridin-2-ylthio)-5-iodobenzene-1,2-diol] |
| 1000 to 10000 | C#CCCCn1c(Sc2cc(OC)ccc2C#N)nc2c(N)nccc21 [Compound 18, 2-(4-amino-1-(pent-4-ynyl)-1H-imidazo[4,5-c]pyridin-2-ylthio)-4-methoxybenzonitrile] |
| > 10000 | C#CCCCn1c(Sc2cc(F)c(F)cc2I)nc2c(N)nccc21 [Compound 21, 2-(4,5-difluoro-2-iodophenylthio)-1-(pent-4-ynyl)-1H-imidazo[4,5-c]pyridin-4-amine] |
| 1000 to 10000 | C#CCCn1c(Sc2cc3c(cc2Br)OCO3)nc2c(N)nccc21 [Compound 22, 2-(6-bromobenzo[d][1,3]dioxol-5-ylthio)-1-(but-3-ynyl)-1H-imidazo[4,5-c]pyridin-4-amine] |
| 100 to 1000 | C#CCCn1c(Sc2cc3c(cc2I)OCO3)nc2c(N)nccc21 [Compound 23, 1-(but-3-ynyl)-2-(6-iodobenzo[d][1,3]dioxol-5-ylthio)-1H-imidazo[4,5-c]pyridin-4-amine] |
| 1000 to 10000 | C#CCCCCn1c(Sc2cc3c(cc2Br)OCO3)nc2c(N)nccc21 [Compound 24, 2-(6-bromobenzo[d][1,3]dioxol-5-ylthio)-1-(hex-5-ynyl)-1H-imidazo[4,5-c]pyridin-4-amine] |
| 100 to 1000 | C#CCCCCn1c(Sc2cc3c(cc2I)OCO3)nc2c(N)nccc21 [Compound 25, 1-(hex-5-ynyl)-2-(6-iodobenzo[d][1,3]dioxol-5-ylthio)-1H-imidazo[4,5-c]pyridin-4-amine] |
| 1000 to 10000 | COc1ccc(I)c(Sc2nc3c(N)nccc3n2CCCC#N)c1 [Compound 26, 4-(4-amino-2-(2-iodo-5-methoxyphenylthio)-1H-imidazo[4,5-c]pyridin-1-yl)butanenitrile] |
| 1000 to 10000 | N#CCCCn1c(Sc2cc3c(cc2Br)OCO3)nc2c(N)nccc21 [Compound 27, 4-(4-amino-2-(6-bromobenzo[d][1,3]dioxol-5-ylthio)-1H-imidazo[4,5-c]pyridin-1-yl)butanenitrile] |
| 100 to 1000 | N#CCCCn1c(Sc2cc3c(cc2I)OCO3)nc2c(N)nccc21 [Compound 28, 4-(4-amino-2-(6-iodobenzo[d][1,3]dioxol-5-ylthio)-1H-imidazo[4,5-c]pyridin-1-yl)butanenitrile] |
| 1000 to 10000 | N#CCCCCn1c(Sc2cc3c(cc2Br)OCO3)nc2c(N)nccc21 [Compound 29, 5-(4-amino-2-(6-bromobenzo[d][1,3]dioxol-5-ylthio)-1H-imidazo[4,5-c]pyridin-1-yl)pentanenitrile] |

| IC50 [nM] | Compound |
| --- | --- |
| 100 to 1000 | N#CCCCCn1c(Sc2cc3c(cc2I)OCO3)nc2c(N)nccc21 [Compound 30, 5-(4-amino-2-(6-iodobenzo[d][1,3]dioxol-5-ylthio)-1H-imidazo[4,5-c]pyridin-1-yl)pentanenitrile] |
| 1000 to 10000 | CC(C)NCCCn1c(Sc2cc3c(cc2Br)OCO3)nc2c(N)nccc21 [Compound 51, 2-(6-bromobenzo[d][1,3]dioxol-5-ylthio)-1-(3-(isopropylamino)propyl)-1H-imidazo[4,5-c]pyridin-4-amine] |
| 100 to 1000 | CC(C)NCCCn1c(Sc2cc3c(cc2I)OCO3)nc2c(N)nccc21 [Compound 52, 2-(6-iodobenzo[d][1,3]dioxol-5-ylthio)-1-(3-(isopropylamino)propyl)-1H-imidazo[4,5-c]pyridin-4-amine] |
| 1000 to 10000 | COc1ccc(Br)c(Sc2nc3c(N)nccc3n2CCCNC(C)C)c1 [Compound 53, 2-(2-bromo-5-methoxyphenylthio)-1-(3-(isopropylamino)propyl)-1H-imidazo[4,5-c]pyridin-4-amine] |
| 1000 to 10000 | COc1ccc(I)c(Sc2nc3c(N)nccc3n2CCCNC(C)C)c1 [Compound 54, 2-(2-iodo-5-methoxyphenylthio)-1-(3-(isopropylamino)propyl)-1H-imidazo[4,5-c]pyridin-4-amine] |
| 100 to 1000 | CC(C)(C)NCCCn1c(Sc2cc3c(cc2I)OCO3)nc2c(N)nccc21 [Compound 58, 1-(3-(tert-butylamino)propyl)-2-(6-iodobenzo[d][1,3]dioxol-5-ylthio)-1H-imidazo[4,5-c]pyridin-4-amine] |
| 100 to 1000 | CCC(CC)NCCCn1c(Sc2cc3c(cc2I)OCO3)nc2c(N)nccc21 [Compound 60, 2-(6-iodobenzo[d][1,3]dioxol-5-ylthio)-1-(3-(pentan-3-ylamino)propyl)-1H-imidazo[4,5-c]pyridin-4-amine] |
| 100 to 1000 | CC(C)OCCn1c(Sc2cc3c(cc2Br)OCO3)nc2c(N)nccc21 [Compound 61, 2-(6-bromobenzo[d][1,3]dioxol-5-ylthio)-1-(2-isopropoxyethyl)-1H-imidazo[4,5-c]pyridin-4-amine] |
| 100 to 1000 | CC(C)OCCn1c(Sc2cc3c(cc2I)OCO3)nc2c(N)nccc21 [Compound 62, 2-(6-iodobenzo[d][1,3]dioxol-5-ylthio)-1-(2-isopropoxyethyl)-1H-imidazo[4,5-c]pyridin-4-amine] |
| 1000 to 10000 | COc1ccc(I)c(Sc2nc3c(N)nccc3n2CCOC(C)C)c1 [Compound 64, 2-(2-iodo-5-methoxyphenylthio)-1-(2-isopropoxyethyl)-1H-imidazo[4,5-c]pyridin-4-amine] |
| 100 to 1000 | NC(=O)CCCn1c(Sc2cc3c(cc2I)OCO3)nc2c(N)nccc21 [Compound 66, 4-(4-amino-2-(6-iodobenzo[d][1,3]dioxol-5-ylthio)-1H-imidazo[4,5-c]pyridin-1-yl)butanamide] |
| 100 to 1000 | NC(=O)CCCCn1c(Sc2cc3c(cc2I)OCO3)nc2c(N)nccc21 [Compound 68, 5-(4-amino-2-(6-iodobenzo[d][1,3]dioxol-5-ylthio)-1H-imidazo[4,5-c]pyridin-1-yl)pentanamide] |
| 100 to 1000 | NC(=O)CCCCCn1c(Sc2cc3c(cc2I)OCO3)nc2c(N)nccc21 [Compound 70, 6-(4-amino-2-(6-iodobenzo[d][1,3]dioxol-5-ylthio)-1H-imidazo[4,5-c]pyridin-1-yl)hexanamide] |
| 100 to 1000 | CC(=O)NCCn1c(Sc2cc3c(cc2I)OCO3)nc2c(N)nccc21 [Compound 72, N-(2-(4-amino-2-(6-iodobenzo[d][1,3]dioxol-5-ylthio)-1H-imidazo[4,5-c]pyridin-1-yl)ethyl)acetamide] |
| 100 to 1000 | CC(=O)NCCCn1c(Sc2cc3c(cc2I)OCO3)nc2c(N)nccc21 [Compound 74, N-(3-(4-amino-2-(6-iodobenzo[d][1,3]dioxol-5-ylthio)-1H-imidazo[4,5-c]pyridin-1-yl)propyl)acetamide] |
| 100 to 1000 | CC(=O)NCCCCn1c(Sc2cc3c(cc2I)OCO3)nc2c(N)nccc21 [Compound 76, N-(4-(4-amino-2-(6-iodobenzo[d][1,3]dioxol-5-ylthio)-1H-imidazo[4,5-c]pyridin-1-yl)butyl)acetamide] |
| > 10000 | CN(C)Cc1cc2c(cc1Sc1nc3c(N)nccc3n1CCNCC(C)(C)C)OCO2 [Compound 115, 2-(6-((dimethylamino)methyl)benzo[d][1,3]dioxol-5-ylthio)-1-(2-(neopentylamino)ethyl)-1H-imidazo[4,5-c]pyridin-4-amine] |
